The text below walks through data of publication PMC6131539, “Behavioral Effects of a Potential Novel TAAR1 Antagonist” (Frontiers in Pharmacology, 2018).

In assay [1] the test system is WT littermates (C57BL/6J x 129S2/Sv). The assay is described as follows: Stereotypic counts, co-injection with amphetamine, WT littermates. It counts as in vivo, mice. Conditions: any dose (2.5, 5, 15 mg/kg) co-injected with amphetamine 2 mg/kg. As for the experimental part:
(§1) Experimentally naïve mice, of at least 12 weeks of age, were used for all behavioral experiments. The mice were randomly assigned to treatment or control groups, balanced by sex and weight. Locomotor activity was assessed using the automated locomotor analysis monitors (Omnitech Electronics, Columbus, OH, United States). The apparatus included four open field monitors. Each Open Field monitor consisted of sets of 16 light beams arrayed in the horizontal X and Y axes. The hardware detected beams broken by the animal, which allowed the software to determine the location of the mouse in the cage. Total distance covered by mice was used to characterize locomotor activity of the animals. The monitors were divided into four compartments (20 cm × 20 cm). Animals were tested individually for defined periods with 5-min intervals. The mice were first weighed and then placed into the apparatus, allowing for 30 min habituation. […] The locomotor activity was then measured for additional 1 h. […]
(§2) Supplementary file Image_2.TIF: FIGURE S2 In vivo studies with TAAR1-KO mice and compound 22 on stereotypic counts activity. […] The sum of stereotypic counts was assessed over 60 min after the injection of amphetamine and compound 22 in WT (solid bars) or TAAR1-KO mice (spotted bars). […] The sum of stereotypic counts was assessed over 60 min following the injection in WT (solid bars) or TAAR1-KO mice (dotted bars). […]

In assay [2] the target is Norepinephrine Transporter (Homo sapiens, UniProt P23975). The assay can be described thus: PDSP binding, secondary screen. The protocol: (§3) This was achieved through the identification of potential pharmacological targets of compound 22 using the Psychoactive Drug Screening Program (PDSP) at University of North Carolina-Chapel-Hill. PDSP provides a platform for screening novel psychoactive compounds on human proteins expressed in the central nervous system in order to identify their biological target(s) ([Besnard et al., 2012]). Binding studies were done on 47 targets at a single dose of compound 22 (10 μM; Supplementary Table S1). This primary screen yielded a total of 5 hits for compound 22 (Table 2). These hits were the serotonin, dopamine, and norepinephrine transporters, as well as the sigma 1 and sigma 2 receptors.
Chain of Norepinephrine Transporter (P23975 whole entry): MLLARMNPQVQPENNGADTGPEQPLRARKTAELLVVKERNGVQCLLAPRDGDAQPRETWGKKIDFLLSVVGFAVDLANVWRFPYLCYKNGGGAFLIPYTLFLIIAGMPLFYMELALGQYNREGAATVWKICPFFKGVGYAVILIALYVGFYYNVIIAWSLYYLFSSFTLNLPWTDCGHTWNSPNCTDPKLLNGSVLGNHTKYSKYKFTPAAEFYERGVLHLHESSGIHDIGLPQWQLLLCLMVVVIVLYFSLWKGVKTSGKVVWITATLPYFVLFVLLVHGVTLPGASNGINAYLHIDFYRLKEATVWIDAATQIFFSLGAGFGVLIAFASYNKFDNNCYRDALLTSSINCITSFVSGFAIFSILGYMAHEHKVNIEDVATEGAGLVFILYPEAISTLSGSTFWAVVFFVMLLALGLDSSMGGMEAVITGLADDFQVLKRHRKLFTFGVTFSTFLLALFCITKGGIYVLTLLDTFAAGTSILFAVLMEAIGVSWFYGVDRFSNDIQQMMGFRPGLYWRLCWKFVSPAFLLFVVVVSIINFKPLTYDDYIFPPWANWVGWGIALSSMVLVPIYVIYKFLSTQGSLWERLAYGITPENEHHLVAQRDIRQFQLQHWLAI

Assay [3] addresses Serotonin Transporter (Homo sapiens, UniProt P31645). The assay can be described thus: PDSP binding, secondary screen. The protocol:
as §3

For assay [4], the target named is Dopamine Transporter (Homo sapiens, UniProt Q01959). The assay is described as follows: PDSP binding, secondary screen. As for the experimental part:
as §3

Assay [5] deals with WT littermates (C57BL/6J x 129S2/Sv). The assay can be described thus: Stereotypic counts, co-injection with cocaine, WT littermates. Conditions: 15 and 25 mg/kg co-injected with cocaine 10 mg/kg. It counts as in vivo, mice. The protocol:
as §1, §2

In assay [6] the test system is TAAR1. More on the design: method as in Lam et al., 2015b. Conditions: previous study; ref Lam et al., 2015b; read-out: IC50 (TAAR1 antagonist); cited from earlier work.
Assay [7] relates to C57BL/6J mice. The assay can be described thus: Basal locomotor activity in C57BL/6J mice. It counts as in vivo. As for the experimental part: Experimentally naïve mice, of at least 12 weeks of age, were used for all behavioral experiments. The mice were randomly assigned to treatment or control groups, balanced by sex and weight. Locomotor activity was assessed using the automated locomotor analysis monitors (Omnitech Electronics, Columbus, OH, United States). The apparatus included four open field monitors. Each Open Field monitor consisted of sets of 16 light beams arrayed in the horizontal X and Y axes. The hardware detected beams broken by the animal, which allowed the software to determine the location of the mouse in the cage. Total distance covered by mice was used to characterize locomotor activity of the animals. The monitors were divided into four compartments (20 cm × 20 cm). Animals were tested individually for defined periods with 5-min intervals. The mice were first weighed and then placed into the apparatus, allowing for 30 min habituation. Following the habituation, the mice were removed from the al apparatus and injected with drugs (see below for administration) or vehicle and returned immediately to the locomotor chamber. The locomotor activity was then measured for additional 1 h. After the experiments, the animals were euthanized by cervical dislocation.
All drug solutions were prepared freshly on the day of the experiment and injected i.p. at the volume of 10 ml/kg. […] Amphetamine was dissolved in 0.9% saline at a concentration of 0.2 mg/mL.
In order to assess the effects of compound 22 on basal locomotor activity, C57BL/6 mice were injected with doses of 5 and 30 mg/kg of compound 22 or vehicle (Figure 1). At the dose of 5 mg/kg, compound 22 inhibited basal locomotor activity by 58% (^∗p = 0.02). Although not significant, there was a trend toward a decrease in locomotor activity at the dose of 30 mg/kg as well (26% decrease, p = 0.15).
FIGURE 1 In vivo studies with compound 22 on basal locomotor activity. Wild type C57BL/6J mice were first habituated for 30 min followed by co-injection of saline or compound 22 at a dose of 5 or 30 mg/kg. The locomotor activity was assessed for 60 min after injection. […]

pIC50, pKi: −log10 of the molar value.

Chain of Dopamine Transporter (Q01959 whole entry): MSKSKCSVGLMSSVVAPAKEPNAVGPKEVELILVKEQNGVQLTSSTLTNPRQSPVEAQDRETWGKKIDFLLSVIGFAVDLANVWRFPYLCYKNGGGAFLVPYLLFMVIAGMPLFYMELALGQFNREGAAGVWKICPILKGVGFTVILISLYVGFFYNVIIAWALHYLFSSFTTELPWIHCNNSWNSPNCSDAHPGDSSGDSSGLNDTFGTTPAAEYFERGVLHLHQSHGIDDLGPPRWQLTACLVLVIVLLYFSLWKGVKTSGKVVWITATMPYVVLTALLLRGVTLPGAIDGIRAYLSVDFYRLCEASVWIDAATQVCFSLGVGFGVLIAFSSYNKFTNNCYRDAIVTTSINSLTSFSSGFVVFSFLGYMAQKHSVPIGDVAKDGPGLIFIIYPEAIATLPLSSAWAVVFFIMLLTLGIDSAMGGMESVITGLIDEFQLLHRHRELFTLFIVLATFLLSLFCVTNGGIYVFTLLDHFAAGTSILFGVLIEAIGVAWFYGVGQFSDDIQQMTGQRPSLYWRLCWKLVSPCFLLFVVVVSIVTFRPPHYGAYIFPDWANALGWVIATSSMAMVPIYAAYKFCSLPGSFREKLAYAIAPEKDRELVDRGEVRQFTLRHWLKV
Chain of Serotonin Transporter (P31645 whole entry): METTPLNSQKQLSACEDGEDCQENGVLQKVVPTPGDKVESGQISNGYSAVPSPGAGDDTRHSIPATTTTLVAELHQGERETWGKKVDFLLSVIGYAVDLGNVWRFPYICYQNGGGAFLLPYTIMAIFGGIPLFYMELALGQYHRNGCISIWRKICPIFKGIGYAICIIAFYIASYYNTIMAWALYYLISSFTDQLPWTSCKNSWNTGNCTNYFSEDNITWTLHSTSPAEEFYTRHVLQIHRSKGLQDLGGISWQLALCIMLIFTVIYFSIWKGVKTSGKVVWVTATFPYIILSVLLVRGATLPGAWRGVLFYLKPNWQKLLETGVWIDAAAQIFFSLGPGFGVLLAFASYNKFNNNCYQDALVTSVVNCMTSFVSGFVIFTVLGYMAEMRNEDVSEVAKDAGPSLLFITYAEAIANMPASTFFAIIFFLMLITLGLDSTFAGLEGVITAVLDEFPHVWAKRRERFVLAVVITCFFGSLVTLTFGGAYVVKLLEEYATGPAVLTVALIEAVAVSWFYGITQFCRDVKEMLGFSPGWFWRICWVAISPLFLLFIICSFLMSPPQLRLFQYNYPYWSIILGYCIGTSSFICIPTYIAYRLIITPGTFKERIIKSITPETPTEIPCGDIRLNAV

As for `Clc1ccc(CNCc2ccc(Cn3cncn3)cc2)c(Cl)c1` [compound 22], the stereotypic counts result is recorded as “did not have statistically enhanced stereotypic counts” in assay [1] and “enhanced stereotypic counts” in assay [5]. Also, the pKi in assay [2] was 5.72; in assay [3] it was 5.74; in assay [4] it was 5.98. For the same compound, the pIC50 in assay [6] is below 4.00. In addition, the “inhibition of basal locomotor activity” value in assay [7] (5 mg/kg i.p. alone, sum over 60 min vs saline, p = 0.02) is listed as 58%. The “decrease in basal locomotor activity” value in assay [7] (30 mg/kg i.p. alone, sum over 60 min vs saline, not significant, p = 0.15) is 26%. The “effect on locomotor activity when administered alone” value in assay [7] (5 and 30 mg/kg i.p., administered alone) is reported as “did not stimulate locomotor activity”.
